Literature values as cited in patent US20240065995A1, “INJECTABLE METHODS TO TREAT DEFICIENCIES IN GLUTATHIONE METABOLISM AND HOMOCYSTINURIA” (priority 2022, published 2024).

Details: glutathione in the bloodstream; background statement

SMILES: N[C@@H](CCC(=O)N[C@@H](CS)C(=O)NCC(=O)O)C(=O)O [Glutathione]
- half-life in the bloodstream: under 2 minutes
